This note sets out measurements from PubChem BioAssay AID1552 (Sanford-Burnham Center for Chemical Genomics, 2009).

As usually defined, the Kd is a measure of binding affinity in units of concentration.

Active and inactive are the calls of the source. No rule for the calls is given here.

In the assay the target is Ubiquitin-conjugating enzyme E2 N (Homo sapiens) (UniProt P61088). Kind of assay: NMR detection of UBE2N ligand binding – biophysical, purified protein (AID 1552). Conditions: NMR binding to purified UBE2N.
Ubiquitin-conjugating enzyme E2 N (Homo sapiens), sequence (P61088 whole entry, looked up): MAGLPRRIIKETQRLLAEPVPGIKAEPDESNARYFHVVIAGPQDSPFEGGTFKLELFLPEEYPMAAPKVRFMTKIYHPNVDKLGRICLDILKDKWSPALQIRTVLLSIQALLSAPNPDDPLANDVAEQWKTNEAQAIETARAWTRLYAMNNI
In the case of `C[C@H]1OC(O[C@H]2[C@@H](O)CC(O[C@H]3[C@@H](O)C[C@H](O[C@H]4CC[C@]5(C)C6CC[C@]7(C)[C@@H](C8=CC(=O)OC8)[C@@H](O)C[C@]7(O)[C@@H]6CC[C@@H]5C4)O[C@@H]3C)O[C@@H]2C)C[C@H](O)C1O` (some centres not stated), the Kd was > 4 mM (inactive). On to `Cc1cc(C)n(-c2ccc(N)cc2)n1`, for which the Kd was > 4 mM (inactive). Regarding `CC(=O)Nc1cccc(N2C(=O)CCC2=O)c1`, the Kd was > 4 mM (inactive). As to `CCNS(=O)(=O)c1cc(Br)ccc1OC`, the Kd is > 4 mM (inactive). Consider `CC(=O)Nc1ccc2c(C)cc(=O)[nH]c2c1`, for which the Kd was > 4 mM (inactive).

On to `C=C(C)[C@H]1COc2cc3oc(=O)ccc3cc2O1`, for which the Kd was > 4 mM (inactive). `C=CCc1cc(C(=O)N2CCCCC2)ccc1O`: the Kd was > 4 mM (inactive). Next, `NC(=O)Nc1cccc(C(F)(F)F)c1`: > 4 mM (inactive). Consider `C[C@@H]1CC[C@@]23CCC4(C)[C@@](C=CC5[C@@]6(C)CCC(=O)C(C)(C)C6CC[C@]54C)(OC2=O)C3[C@H]1C` (some centres not stated), for which the Kd is > 4 mM (inactive). Next, `CNC(=O)C(=O)Nc1ccc(F)cc1`: > 4 mM (inactive); `O=C(CSc1ccccc1)N1CCC2(CC1)OCCO2`: > 4 mM (inactive); `O=C(O)/C=C/C(=O)Nc1ccccc1C(F)(F)F`: > 4 mM (inactive). As for `O=C(c1ccco1)N1CCCN(C(=O)c2ccco2)CC1`, the Kd was > 4 mM (inactive). `COC(=O)c1ccc2nccnc2c1`: the Kd was > 4 mM (inactive). The same measure for `CCN1CCN(CCCNc2ncnc3nc[nH]c23)CC1`: > 4 mM (inactive). On to `O=C(O)c1ccccc1N1CCOCC1`, for which the Kd is > 4 mM (inactive).

`c1ccc2[nH]c(NCCN3CCOCC3)nc2c1`: the Kd was > 4 mM (inactive). Next, `COc1ccc2c(c1)OCc1c-2oc2cc(OC)ccc12`: > 4 mM (inactive); `O=C(Nc1nccs1)c1ccc(=O)[nH]n1`: > 4 mM (inactive); `Nc1ccc(-n2cncn2)cc1`: > 4 mM (inactive). `O=C1CCN(c2ccccc2)N1`: the Kd was > 4 mM (inactive). With `COc1cc(S(=O)(=O)Nc2cccnc2)ccc1F`, the Kd is > 4 mM (inactive).

For the compound `CCOc1ccc(Cl)cc1S(=O)(=O)N1CCCC1`, the Kd was > 4 mM (inactive). Next, `COc1cc(C)c(Cl)cc1S(=O)(=O)N(C)C`: > 4 mM (inactive); `C=C1CCC(C2CC(=O)OC2=O)C(=O)CCC2C1CC2(C)C` (configuration not stated): > 4 mM (inactive). For `O=C1C2CCCCC2C(=O)N1c1nccs1` (configuration not stated), the Kd is > 4 mM (inactive).

`CC(=O)c1c(O)cc(O)cc1O`: the Kd was > 4 mM (inactive).

In the case of `CC(NC(=O)c1cccnc1)c1ccc2c(c1)OCO2` (configuration not stated), the Kd is > 4 mM (inactive).

Turning to `Cc1cc(=O)oc2cc3c(cc12)OCCO3`, the Kd was > 4 mM (inactive).

Regarding `O=C(O)C1COc2ccccc2C1` (configuration not stated), the Kd is > 4 mM (inactive). As to `COc1ccc(/C=C2/SC(N)=NC2=O)c(OC)c1`, the Kd was > 4 mM (inactive).

As to `O=C1C2CC=CCC2C(=O)N1c1ccccc1` (configuration not stated), the Kd is > 4 mM (inactive). The same measure for `NC(=O)C1CCN(C(=S)c2cccs2)CC1`: > 4 mM (inactive); for `CC(N)C(=O)c1ccco1` (configuration not stated): > 4 mM (inactive); for `O=C(OCc1c(Cl)cccc1Cl)c1cnccn1`: > 4 mM (inactive). For `CC1CC[C@@]2(OC1)O[C@H]1CC3C4CC[C@@H]5C[C@@H](O)CC[C@]5(C)C4CC[C@]3(C)[C@H]1[C@@H]2C` (some centres not stated), the Kd was > 4 mM (inactive). `CC(C)=CCOc1cc2oc(=O)ccc2cc1O`: the Kd is > 4 mM (inactive). As for `CC(=O)Nc1nnc(-c2ccncc2)s1`, the Kd is > 4 mM (inactive). Take `CN1CCC(N(C)C2CCN(C)CC2)CC1`: the Kd is > 4 mM (inactive).

Take `CC(C)NC(=O)c1cc(=O)n(C)c(=O)n1C`: the Kd was > 4 mM (inactive). The same measure for `OCCCc1nc2ccc(C(F)(F)F)cc2[nH]1`: > 4 mM (inactive). Take `COC(=O)C1=C(C)N(Cc2ccco2)C(=O)C1`: the Kd was > 4 mM (inactive). Next, `CN(C)C(=O)Oc1cccc(-c2nnco2)c1`: > 4 mM (inactive); `O=C(Cc1c(F)cccc1Cl)Nc1ccon1`: > 4 mM (inactive); `COc1ccc(-c2coc3c(O)c(OC)ccc3c2=O)cc1`: > 4 mM (inactive). For the compound `O=C(NCCCSc1ncccn1)Nc1ncccn1`, the Kd was > 4 mM (inactive).

As to `COc1ccc([C@@H]2CC(=O)c3c(O)cc(O[C@@H]4O[C@H](CO[C@H]5O[C@@H](C)[C@H](O)[C@@H](O)[C@H]5O)[C@@H](O)[C@H](O)[C@H]4O)cc3O2)cc1O`, the Kd is > 4 mM (inactive). The same measure for `O=c1cc(-c2ccc(O)cc2)oc2cc(O[C@@H]3O[C@H](CO)[C@@H](O)[C@H](O)[C@H]3O[C@@H]3OC[C@](O)(CO)[C@H]3O)cc(O)c12`: > 4 mM (inactive); for `Cn1ncc(N2CCOCC2)c(Cl)c1=O`: > 4 mM (inactive). On to `O=C(Nc1cccc(O)c1)c1ccccc1`, for which the Kd is > 4 mM (inactive). Next, `COc1c2c(cc3cc[n+](C)cc13)OCO2`: > 4 mM (inactive); `NC(=O)Cn1nnc(-c2ccc(C(F)(F)F)cc2)n1`: > 4 mM (inactive). The same measure for `Cc1ccc(NC(=O)C2CCN(S(C)(=O)=O)CC2)cc1`: > 4 mM (inactive). Next, `CCOC(=O)C1C(=O)C2CCN1CC2` (configuration not stated): > 4 mM (inactive). For the compound `O=C(O)c1cc(=O)c2cccc(O)c2[nH]1`, the Kd is > 4 mM (inactive).

As for `Cc1sc2nc[nH]c(=S)c2c1C`, the Kd was > 4 mM (inactive).

For `Nc1cccc2nonc12`, the Kd was > 4 mM (inactive). As to `CCn1cnc2cc([N+](=O)[O-])ccc2c1=O`, the Kd is > 4 mM (inactive).

On to `O=C1CSC(=O)N1CN1CCCC1`, for which the Kd was > 4 mM (inactive). The same measure for `O=C(Nc1ccccc1)c1cnc2n(c1=O)CCS2`: > 4 mM (inactive).

With `CSc1ncnc2nc[nH]c12`, the Kd was > 4 mM (inactive).

Regarding `CNc1nc(N)c(C(=O)C(C)(C)C)s1`, the Kd was > 4 mM (inactive). In the case of `COc1ccccc1-c1cn[nH]c(=S)n1`, the Kd is > 4 mM (inactive). Next, `CC1(C)CC2C1CC[C@]1(C)CCC3C(C(=O)O)CC(=O)O[C@@]32C1` (some centres not stated): > 4 mM (inactive); `O=C(Cc1c(F)cccc1Cl)Nc1ccncc1`: > 4 mM (inactive); `O=c1c2ccccc2oc2ccc(O)cc12`: > 4 mM (inactive).

`CC(=O)c1cccc(NC2=NCC(C)(C)S2)c1`: the Kd was > 4 mM (inactive). Next, `O=C(c1cccs1)N1CCCc2ccccc21`: > 4 mM (inactive); `COc1ccc(-c2cc(=O)c3cc(OC)ccc3o2)cc1`: > 4 mM (inactive). The same measure for `CN1CCC(NC(=O)c2c(F)cccc2Cl)CC1`: > 4 mM (inactive); for `O=C1CCCN1c1ccc(S(=O)O)cc1`: > 4 mM (inactive); for `O=C(O)c1cccnc1N1CCOCC1`: > 4 mM (inactive). Take `C=C1C2CC[C@@]3(C)[C@H](c4ccoc4)OC(=O)C[C@]13O[C@H]1CC(=O)C(C)(C)[C@H](C(OC(C)=O)C(=O)OC)[C@@]21C` (some centres not stated): the Kd is > 4 mM (inactive). On to `Cc1cc([N+](=O)[O-])cc[n+]1[O-]`, for which the Kd was > 4 mM (inactive). Next, `Cc1nc2ccccc2c(=O)n1NC(=O)C1CCCCC1`: > 4 mM (inactive); `CSc1nnc2c(n1)OC=Nc1ccccc1-2`: > 4 mM (inactive). Turning to `OCCNc1ccccn1`, the Kd was > 4 mM (inactive). Next, `CCC(CO)NC(=O)c1snnc1C` (configuration not stated): > 4 mM (inactive). The same measure for `Cc1oc2nc3c(c(=O)[nH]c(=O)n3C)n2c1C`: > 4 mM (inactive). The same measure for `COC(=O)c1ccc2snnc2c1`: > 4 mM (inactive); for `COc1cc2c(cc1OC)C(C)NCC2` (configuration not stated): > 4 mM (inactive); for `Nc1nc(CSc2ncn(-c3ccccc3)n2)cs1`: > 4 mM (inactive). Regarding `O=S(=O)(CCN1CCCC1)c1ccccc1`, the Kd was > 4 mM (inactive). `CCCCn1c(=O)cc(O)c2ccccc21`: the Kd is > 4 mM (inactive). The same measure for `O=C(O)c1ccc(-c2ccccn2)s1`: > 4 mM (inactive); for `CCNC(CC(=O)Nc1cccc([N+](=O)[O-])c1)C(=O)O` (configuration not stated): > 4 mM (inactive). The same measure for `O=S1(=O)NC(=NCc2ccco2)c2ccccc21`: > 4 mM (inactive); for `Cc1[nH]c2ccccc2c1C=Nn1cncn1`: > 4 mM (inactive); for `O=c1ccc2ccccc2o1`: > 4 mM (inactive). Next, `Cc1noc(C)c1C(=O)Nc1ccccn1`: > 4 mM (inactive); `S=c1nc(C2CC2)[nH]c2ccccc12`: > 4 mM (inactive). As to `CN1C(=O)C2C=CC1C1C(=O)N(c3ccccc3)C(=O)C21` (configuration not stated), the Kd is > 4 mM (inactive). The same measure for `CCN1CCC2(CC1)CC1CC3C=CC1(CN2C(C)=O)O3` (configuration not stated): > 4 mM (inactive); for `c1ccc(C[N+]23CCN(CC2)c2ccccc23)cc1`: > 4 mM (inactive). As to `O=c1cnnc(Nc2ccc(O)cc2)[nH]1`, the Kd is > 4 mM (inactive). The same measure for `COc1ccc2c(c1)[n+](=O)c(C(C)=O)c(C)n2[O-]`: > 4 mM (inactive); for `c1ccc(-c2nsc(N3CCCNCC3)n2)cc1`: > 4 mM (inactive); for `Nc1cc(N)nc(SCc2ccccc2)n1`: > 4 mM (inactive). The same measure for `COCc1nn2c(N)c(C#N)cnc2c1-c1ccccc1`: > 4 mM (inactive). The same measure for `COC(=O)NCc1cc2cc(Cl)ccc2[nH]1`: > 4 mM (inactive). Consider `Nc1cccc(S(=O)(=O)N2CCCC2)c1`, for which the Kd is > 4 mM (inactive). Next, `Nc1[nH]c(=S)ncc1S(=O)(=O)c1ccccc1`: > 4 mM (inactive).
